# Experimental data: US12403132B2, “Methods of treating bone marrow failure syndromes and compositions for use in the same” (The Board of Trustees of the Leland Stanford Junior …, priority 2020, dated 2025)
# System: NLK
# Assay: NLK expression in differentiating human progenitors (qRT-PCR, Western blot)
# Format: cell-based
# Design: reduction of NLK protein expression / NLK expression, % of control: concentration or dose not given beside the values
# Conditions: for NLK expression, % of control: miRNAs or drugs, single and combined; for reduction of NLK protein expression: metformin
# Experimental: FIG. 10. Metformin improves erythropoiesis through suppression of NLK expression. (Panel A) Control (shLuc—grey columns) or RPS19-insufficient (shRPS19-—black columns) progenitors were differentiated in erythroid media alone, vehicle or vehicle containing 50 mM metformin or 5 uM SD208 for 5 days. 5000 cells per treatment were lysed and immunopurified NLK was subjected to in vitro kinase assay to determine phosphorylation potential against 3 recognized NLK substrates; NLK itself (upper), c-Myb (middle) or raptor (bottom). (Panel B) Simultaneously, qRT-PCR was performed to examine NLK (upper) and RPS19 (lower) mRNA expression. (Panel C) Active NLK was purified from activated Kp53A1 cells and subjected to in vitro kinase assay in the presence of 0, 50 nM, 50 μM, or 50 mM metformin or SD208. The phosphorylation of NLK (upper), c-Myb (middle) and raptor (lower) was determined after 30 mins. (Panel D) CD34+ progenitors were transduced with a combination of either shRNA against luciferase (shLuc—grey columns) or RPS19 (shRPS19—black columns) and siRNA against a non-targeting sequence (NT) or NLK (siNLK). After 14 days differentiation in the presence or absence of metformin, cells were counted and the percentage of cells with surface expression of CD235 and CD11b were determined by flow cytometry, to yield the number of CD235+ erythroid (upper) and CD11b+ myeloid (lower) cells. The total number of cells is expressed as a percentage of the number of each cell type in the control (untreated/shLuc/NT). […] Statistics: two-tailed Student's t test, significant *P<0.05
# RNA was extracted by using total RNA mini kit (Bio-Rad). RNA was transcribed into cDNA by using the iScript cDNA Synthesis Kit (Bio-Rad). The quantitative RT-PCR (qRT-PCR) reaction was run with iQ SYBR Green MasterMix (Bio-Rad) using the CFX384 Touch Real-Time PCR Detection System (Bio-Rad). 7SL small cytoplasmic RNA14 was used as an internal control. miRNA was quantified using TaqMan® Small RNA Assays (Applied Biosystems) as per manufacturer's directions and normalized to snoRNA. Fold change of mRNA and miRNA was calculated by using the comparative Ct method.
# Antibodies against RPS19 (#AB40833; Abcam; 1:200 dilution), NLK (#AB97642; Abcam; 1:1000 dilution) c-Myb (#12319; Cell Signaling; 1;1000 dilution), raptor (#AB26264; Abcam 1;1000 dilution), phosphor-Serine (#525280; Calbiochem; 1:1000 dilution), S6K (#9202; Cell Signaling; 1:500 dilution), and 4E-BP1 (#9452; Cell Signaling; 1:500 dilution), and GAPDH (#MAB374; Millipore; 1:10000) were used according to manufacturer's instructions. The target proteins were analyzed by using SuperSignal® West Pico Chemiluminescent Substrate for horseradish peroxidase (Thermo Scientific). Densitometry was performed using Image J software (http://rsb.info.nih.gov/ij/). When indicated, proteins were co-immunoprecipitated prior to immunoblotting. Cell lysates were normalized for protein before preclearing with Protein A/G Agarose (Upstate) for 30 min, before incubating with indicated antibody overnight. Immune complexes were precipitated with Protein A/G Agarose and separated by SDS-PAGE, before being subjected to immunoblotting.
# NLK kinase activity was performed as published (5). For Western blotting, antibodies against NLK (#AB97642; Abcam; 1:1000 dilution) and GAPDH (#MAB374; Millipore; 1:10000) were used according to manufacturer's instructions.
# MessengerRNA was quantified as described (5). MicroRNA was quantified using TaqMan® Small RNA Assays (Applied Biosystems) as per manufacturer's directions and normalized to snoRNA.
Compound,influence on NLK expression (5 uM SD208),"reduction of NLK mRNA expression (RPS19-insufficiency, 50 mM) [%]","reduction of NLK mRNA expression (control, 50 mM) [%]","reduction of NLK protein (differentiating HSPCs, 50 mM) [%]","NLK expression, % of control [%]",NLK expression (RPS19-insufficient and control cells),reduction of NLK protein expression (RPS19-insufficient cultures) [%],reduction of NLK protein expression (control cultures) [%]
Fc1ccc(Cl)cc1-c1nc(Nc2ccncc2)c2nccnc2n1 [SD208],did not significantly influence,–,–,–,–,–,–,–
CC(C)=CCC[C@](C)(O[C@@H]1O[C@H](CO[C@@H]2O[C@H](CO)[C@@H](O)[C@H](O)[C@H]2O)[C@@H](O)[C@H](O)[C@H]1O)[C@H]1CC[C@]2(C)[C@@H]1[C@H](O)C[C@@H]1[C@@]3(C)CC[C@H](O[C@@H]4O[C@H](CO)[C@@H](O)[C@H](O)[C@H]4O[C@@H]4O[C@H](CO)[C@@H](O)[C@H](O)[C@H]4O)C(C)(C)[C@@H]3CC[C@]12C [ginsenoside Rb1],–,43.2,43.8,46.4,65.4,–,–,–
CN(C)C(=N)N=C(N)N [metformin],–,–,–,–,40.6,similarly suppressed,65.4,62.6
